Where two headings read alike, the source gives them in different places.

The values that follow come from PMC9827972, “Identification of 2,4‐Dinitro‐Biphenyl‐Based Compounds as MAPEG Inhibitors” (Chemmedchem, 2022).

Experiment [1] concerns the target T1, human recombinant LTC4S (Homo sapiens, UniProt Q16873).
T1 construct: expressed in transfected cells; host or cells: HEK293 cells stably expressing LTC4S; microsomal fraction
T1 sequence (Q16873 1-150): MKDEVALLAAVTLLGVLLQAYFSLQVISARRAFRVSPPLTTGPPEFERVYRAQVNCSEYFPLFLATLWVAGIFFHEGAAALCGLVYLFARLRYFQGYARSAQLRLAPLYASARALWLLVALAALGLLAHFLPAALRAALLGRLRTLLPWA
Kind of experiment: Determination of LTC4 synthase activity in microsomes of HEK293 cells expressing LTC4S. Format: biochemical. As to conditions: for inhibition of LTC4S activity (in words): microsomal preparations of HEK293 cells expressing human recombinant LTC4S. The method, then:
Determination of LTC4 synthase activity. HEK293 cells stably expressing human recombinant LTC4S (HEK_LTC4S) were used to generate microsomes containing LTC4S. Briefly, HEK_LTC4S cells were frozen in liquid nitrogen and sonicated 3×20 s at 4 °C in homogenization buffer (0.1 M potassium phosphate buffer, pH 7.4, 1 mM phenylmethanesulfonylfluoride, 60 μg/mL soybean trypsin inhibitor, 1 μg/mL leupeptin, 2.5 mM glutathione, and 250 mM sucrose). Lysates were sequentially centrifuged at 10,000×g, 10 min at 4 °C and 174,000×g for 1 h at 4 °C. The microsomal fraction (2.5 μg) was resuspended in assay buffer (0.1 M potassium buffer pH 7.4, plus 5 mM glutathione) and preincubated with the test compound or vehicle (0.1 % DMSO) for 10 min at 4 °C. The reactions were started by adding 1 μM LTA4‐methyl ester (Cayman, Ann Arbor, MI) and stopped after 10 min incubation at 4 °C by 1 vol. ice‐cold methanol. Acidified PBS and LTC4‐methyl ester‐d5 as internal standard were added prior solid phase extraction, and LTC4‐methyl ester formation was analyzed by UPLC‐MS/MS as described.[43] UPLC‐MS/MS was carried out by Acquity UPLC BEH C18 column (1.7 μm, 2.1×50 mm, waters) and QTRAP 5500 Mass spectrometer (AB Sciex). LTC4‐methyl ester and LTC4‐d5 methyl ester (standard) were detected by multiple reaction monitoring in the negative ion mode by a method described previously.[44]
Reversed phase liquid chromatography and mass spectrometry. LTC4S metabolites were separated on an Acquity ultra performance liquid chromatography (UPLC) BEH C18 column (1.7 μm, 2.1×50 mm, Waters, Milford, MA) using an Acquity^TM UPLC system (Waters, Milford, MA, USA) as previously described.[42] The chromatography system was coupled to a QTRAP 5500 Mass Spectrometer (AB Sciex, Darmstadt, Germany) equipped with an electrospray ionization source. LTC4S metabolites were quantified by multiple reaction monitoring in the negative using a previously reported method with a lower limit of detection of 150 to 600 pg mL^−1 and linear quantification range up to 200 ng mL^−1.[22] Automatic peak integration was performed with ANALYST 1.6 software (Sciex, Darmstadt, Germany) using IntelliQuan default settings. Data were normalized on the internal standard PGB1 and are given as relative intensities.

The subject of experiment [2] is 5‐LOX product formation in human neutrophils. Put plainly: 5-LOX product formation in intact human neutrophils stimulated with A23187 (FLAP-dependent). As to conditions: Neutrophil, read-out: IC50 cell‐based 5‐LOX. As for the experimental part: Blood cell isolation and cultivation of cell lines. Human neutrophils were freshly isolated from peripheral blood obtained at the Institute for Transfusion Medicine of the University Hospital Jena (Germany) as described.[45] Briefly, human peripheral blood was collected in heparinized tubes (16 I. E. heparin/mL blood) by venipuncture from fasted (12 h) adult healthy volunteers, with consent, and leukocyte concentrates were prepared by centrifugation (4000×g, 20 min, 20 °C). The subjects had no apparent inflammatory conditions and had not taken anti‐inflammatory drugs for at least ten days prior to blood collection. Neutrophils were immediately isolated by dextran sedimentation and centrifugation on Nycoprep cushions (PAA Laboratories, Linz, Austria) and hypotonic lysis of erythrocytes was performed under hypotonic conditions. Neutrophils were finally resuspended in PBS pH 7.4 containing 1 mg/mL glucose and 1 mM CaCl2 (purity >96‐97 %).
5‐LOX activity assay. […] […] 30 μL 1 N HCl and 500 μL PBS, and 200 ng PGB1 were added and the samples were subjected to solid phase extraction on C18‐columns (100 mg, UCT, Bristol, PA, USA). 5‐LOX products (LTB4, all‐trans isomers of LTB4, and 5‐hydro(pero)xy‐6,8,11,14‐ eicosatetraenoic acid (5‐H(p)ETE) were analyzed by RP‐HPLC and quantities calculated referencing to the internal standard PGB1.

Experiment [3] addresses T2, mPGES‐1 (Homo sapiens, UniProt O14684).
T2 construct: Microsomes derived from A549 cells expressing mPGES‐1; endogenous in cells; host or cells: A549 cells (microsomes)
T2 sequence (O14684 1-152): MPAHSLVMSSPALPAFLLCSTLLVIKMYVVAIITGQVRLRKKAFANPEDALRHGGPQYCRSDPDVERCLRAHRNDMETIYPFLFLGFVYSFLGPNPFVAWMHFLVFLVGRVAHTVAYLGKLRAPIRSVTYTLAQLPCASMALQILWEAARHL
As to conditions: cell-free; cited from earlier work.

The target of experiment [4] is T3, 5‐LOX/FLAP interaction (Homo sapiens, UniProt P20292).
T3 construct: expressed in transfected cells; host or cells: HEK293 cells stably transfected with 5-LOX and FLAP
T3 sequence (P20292 1-161): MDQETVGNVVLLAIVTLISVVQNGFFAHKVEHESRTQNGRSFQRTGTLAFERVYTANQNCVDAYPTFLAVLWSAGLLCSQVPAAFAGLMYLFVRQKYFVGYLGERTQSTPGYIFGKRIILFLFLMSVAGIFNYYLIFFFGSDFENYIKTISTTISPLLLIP
Put plainly: In situ proximity ligation assay of 5-LOX/FLAP interaction in HEK293 cells. Format: cell-based. As to conditions: HEK293 cells expressing 5-LOX and FLAP, 2.5 μM A23187; 1 d 3 μM. As for the experimental part: Cell culture. The human embryonic kidney cell line HEK293 was cultured as monolayer at 37 °C and 5 % CO2 in DMEM High glucose containing 10 % heat‐inactivated fetal calf serum (FCS), 100 U/mL penicillin and 100 μg/mL streptomycin. HEK293 cells stably expressing human recombinant 5‐LOX and FLAP were selected by 400 μg/mL geneticin and 200 μg/mL hygromycin B, respectively, as described before.[21]
Analysis of 5‐LOX/FLAP interaction by in situ proximity ligation assay. The manufacturer's protocol[46] for proximity ligation assay was used to detect in situ interaction of 5‐LOX with FLAP in HEK293 cells stably expressing both proteins as reported elsewhere.[24] Cells were pretreated with test compounds for 10 min at 37 °C, then treated with 2.5 μM Ca^2+‐ionophore A23187 for another 10 min, fixed, and incubated with primary antibody overnight as described before.[24] Samples were then incubated for 1 h (37 °C) with species‐specific secondary antibodies conjugated with oligonucleotides (PLA probe anti‐mouse MINUS and anti‐rabbit PLUS). The antibody‐bound oligonucleotides formed a DNA circle by addition of ligase (30 min, 37 °C). […] Protein‐protein‐interactions occurred as magenta fluorescent spots analyzed with an Axiovert 200 M microscope (Carl Zeiss) and a Plan Neofluar×40/1.3 Oil (DIC III) objective (Carl Zeiss).

The target in experiment [5] is T2, mPGES‐1. Kind of experiment: mPGES-1 washout assay in microsomes of A549 cells. As to conditions: for residual mPGES-1 enzyme activity: % of vehicle control. The class given is biochemical. The method, then:
mPGES‐1 washout assay. Microsomes derived from A549 cells expressing mPGES‐1 were incubated with low (1 μM) or high concentrations (10 μM) of compound 1 d. After 15 min an aliquot of the sample containing 10 μM 1 d was diluted 10‐fold with buffer to reach a final concentration of 1 μM. After another 5 min the substrate PGH2 (20 μM) was added. The reaction was stopped after 60 s to determine PGE2 formation. Washout data are presented as means of residual activity ± SD in % of vehicle treated control for n=3 independent experiments. Outliers were determined using Grubb's test (GraphPad Software, La Jolla, CA). Samples were not blinded.

The target of experiment [6] is T4, human recombinant 5‐LOX (Homo sapiens, UniProt P09917).
T4 construct: made in house; host or cells: Escherichia coli BL21 (DE3)
T4 sequence (P09917 1-674): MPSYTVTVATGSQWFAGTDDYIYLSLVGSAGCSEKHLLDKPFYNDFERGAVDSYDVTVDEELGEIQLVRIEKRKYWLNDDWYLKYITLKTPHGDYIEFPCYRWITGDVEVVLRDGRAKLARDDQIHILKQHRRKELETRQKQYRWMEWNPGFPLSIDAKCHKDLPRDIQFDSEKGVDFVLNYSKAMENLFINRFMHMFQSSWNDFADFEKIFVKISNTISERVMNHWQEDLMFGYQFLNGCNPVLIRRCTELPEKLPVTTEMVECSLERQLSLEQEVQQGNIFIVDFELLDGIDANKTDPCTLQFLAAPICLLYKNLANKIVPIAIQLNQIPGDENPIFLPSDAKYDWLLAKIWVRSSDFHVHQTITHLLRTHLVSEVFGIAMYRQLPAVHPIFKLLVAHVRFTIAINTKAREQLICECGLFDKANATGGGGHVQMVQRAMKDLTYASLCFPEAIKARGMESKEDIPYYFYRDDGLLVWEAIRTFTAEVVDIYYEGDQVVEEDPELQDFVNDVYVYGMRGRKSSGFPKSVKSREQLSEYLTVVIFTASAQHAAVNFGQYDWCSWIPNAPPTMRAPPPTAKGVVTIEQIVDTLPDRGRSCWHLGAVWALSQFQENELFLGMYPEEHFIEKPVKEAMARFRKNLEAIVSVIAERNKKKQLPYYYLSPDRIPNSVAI
Put plainly: Human recombinant 5-LOX activity assay (cell-free). The class given is biochemical. As to conditions: 20 μM arachidonic acid. The method, then:
Human recombinant 5‐LOX activity assay. Human recombinant 5‐LOX was expressed in Escherichia coli (E. coli BL21 (DE3)) cells and partially purified by affinity chromatography using an ATP‐agarose column as described.[22] Semi‐purified 5‐LOX (specific activity: 1.6 ± 0.2 μg 5‐LOX products per μg protein) was diluted in PBS containing EDTA (1 mM) and ATP (1 mM) to a concentration of 0.5 μg mL^−1 and immediately pre‐incubated with the test compounds (1 μL in DMSO; final DMSO concentration: 0.1 %) for 10 min at 4 °C. Samples were pre‐warmed for 30 s at 37 °C, and 5‐LOX product formation was initiated adding 2 mM CaCl2 and 20 μM arachidonic acid. The reaction was stopped after 10 min at 37 °C adding 1 mL ice‐cold methanol. Formed 5‐LOX metabolites (all‐trans isomers of LTB4 and 5‐H(p)ETE) were extracted and an aliquot of 50 μL analyzed by reversed phase‐HPLC (RP‐HPLC) as described.[23] Data were normalized to the vehicle control to avoid variations independent of test compounds.

For experiment [7], the target named is T3, 5‐LOX/FLAP interaction. Further details: method as in PMID 24905297, PMID 28839250. As to conditions: HEK cells, same experimental conditions; cited from earlier work.

Broadly, the IC50 is the concentration needed to halve the response being measured. For the molecule `O=[N+]([O-])c1cc([N+](=O)[O-])c(-c2ccc(COc3cccc(C(F)(F)F)c3)cc2)cc1F` [1 a], in experiment [1], the IC50 came to 1.68 ± 0.21 µM and the “inhibition of LTC4S activity (in words)” value is on record as “significantly inhibited LTC4S activity”. The half-inhibitory concentration (IC50) in experiment [2] (Homo sapiens, 5 h) is 3.93 ± 0.24 µM.
Regarding `O=[N+]([O-])c1cc([N+](=O)[O-])c(-c2ccc(OCc3ccccc3)cc2)cc1F` [1 b], the 50% inhibitory concentration (IC50) in experiment [1] is over 100 µM; in experiment [2] (Homo sapiens, 5 h) it was over 100 µM; in experiment [3], 0.6 ± 1.2 µM. In experiment [1], the “inhibition of LTC4S activity (in words)” value is reported as “did not show inhibitory activity”.
For `O=[N+]([O-])c1cc([N+](=O)[O-])c(-c2ccc(COc3cccc4ccccc34)cc2)cc1F` [1 c], in experiment [1], the IC50 is over 100 µM and the “inhibition of LTC4S activity (in words)” value was “did not show inhibitory activity”. The IC50 in experiment [2] (Homo sapiens, 5 h) stood at 4.18 ± 0.16 µM.
On to `O=[N+]([O-])c1cc([N+](=O)[O-])c(-c2ccccc2COc2cccc(C(F)(F)F)c2)cc1F` [1 d], for which, in experiment [4], the “effect on 5‐LOX/FLAP interaction (PLA)” value is reported as “able to block the 5‐LOX/FLAP interaction”. For the same molecule, the “inhibition of LTC4S activity (in words)” value in experiment [1] is “significantly inhibited LTC4S activity”. Further, the IC50 in experiment [1] (microsomes of HEK293 cells expressing human recombinant LTC4S, 1 μM LTA4-methyl ester, read-out: IC50 cell‐free LTC4S) is 0.93 ± 0.04 µM; in experiment [2] (human neutrophils, 2.5 μM A23187, LTB4, its trans isomers and 5-H(p)ETE), 1.4 ± 0.09 µM; in experiment [6] it was 3.35 ± 0.22 µM. Moreover, the figures for the “residual mPGES-1 enzyme activity” value in experiment [5] (1 μM 1 d) and in experiment [5] (10 μM 1 d) were 83.3% and 21.3%, respectively. Also, in experiment [5] (10-fold dilution from 10 to 1 μM), the “mPGES-1 enzymatic activity after washout” value came to 72.5%. For the same molecule, in experiment [5] (washout experiment), the “mechanism of mPGES-1 inhibition” value is reported as “reversible mechanism of inhibition”.
As for `COCCc1ccc(OCc2ccc(-c3cc(F)c([N+](=O)[O-])cc3[N+](=O)[O-])cc2)cc1` [1 e], in experiment [1], the IC50 was over 100 µM and the “inhibition of LTC4S activity (in words)” value is on record as “did not show inhibitory activity”. In addition, the IC50 in experiment [2] (Homo sapiens, 5 h) is 3.31 ± 0.27 µM.
Turning to `CC(C)c1ccc2c(c1)c(SC(C)(C)C)c(CC(C)(C)C(=O)O)n2Cc1ccc(Cl)cc1` [MK886], the “effect on 5‐LOX/FLAP interaction (PLA), earlier reports” value in experiment [7] is “does block the interaction”.
Take `CC(c1cc2ccccc2s1)N(O)C(N)=O` (stereo not drawn) [zileuton]: the “effect on 5‐LOX/FLAP interaction (PLA), earlier reports” value in experiment [7] was “inefficiency”.
